Data reported in ChEMBL document CHEMBL1150477, “Development of angiotensin II antagonists with equipotent affinity for human AT1 and AT2 receptor subtypes” (Bioorg Med Chem Lett, 1994).
Substitutions are numbered along the chain they refer to.

Biological target: T1, Type-2 angiotensin II receptor (Homo sapiens, UniProt P50052)
T1 sequence (P50052 whole entry): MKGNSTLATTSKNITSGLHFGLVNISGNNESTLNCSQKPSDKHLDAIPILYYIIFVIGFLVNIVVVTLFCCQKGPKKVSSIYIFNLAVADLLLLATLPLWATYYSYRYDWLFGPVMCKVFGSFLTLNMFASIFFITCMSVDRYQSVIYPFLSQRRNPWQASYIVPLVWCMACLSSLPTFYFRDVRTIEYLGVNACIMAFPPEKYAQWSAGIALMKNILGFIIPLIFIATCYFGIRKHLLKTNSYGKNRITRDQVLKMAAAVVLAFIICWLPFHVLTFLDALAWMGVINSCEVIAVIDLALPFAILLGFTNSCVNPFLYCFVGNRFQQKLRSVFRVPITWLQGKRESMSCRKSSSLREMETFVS
Assay: […] inhibitory concentration against AT2 receptor of human adrenal membrane

| SMILES | IC50 [nM] |
| --- | --- |
| CCc1ccc(C(=O)NS(=O)(=O)c2ccccc2-c2ccc(Cn3c(CC)nc4ccc(NC(=O)NC(C)C)cc4c3=O)c(F)c2)c(F)c1 | 3.1 |
| CCc1nc2ccc(NC(=O)NC(C)C)cc2c(=O)n1Cc1ccc(-c2ccccc2S(=O)(=O)NC(=O)OCCC2CC2)cc1F | 6.5 |
| CCCCc1nc2ccc(NC(=O)N(C)C(C)C)cc2c(=O)n1Cc1ccc(-c2ccccc2S(=O)(=O)NC(=O)OCCC2CC2)cc1F | 7.8 |
| CCCCOC(=O)NS(=O)(=O)c1ccccc1-c1ccc(Cn2c(CC)nc3ccc(NC(=O)N4CCOCC4)cc3c2=O)c(F)c1 | 32 |
| CCCCc1nc2ccc(NC(=O)N(C)C(C)C)cc2c(=O)n1Cc1ccc(-c2ccccc2S(=O)(=O)NC(=O)OCCC(C)C)cc1F | 8 |
| CCCCCN(C(=O)c1ccccc1)c1ccc2nc(CCC)n(Cc3ccc(-c4ccccc4-c4nn[nH]n4)cc3)c(=O)c2c1 | 7 |
| CCCCOC(=O)NS(=O)(=O)c1ccccc1-c1ccc(Cn2c(CCCC)nc3ccc(NC(=O)N(C)C(C)C)cc3c2=O)cc1 | 60 |

Biological target: T2, Type-1 angiotensin II receptor (Homo sapiens, UniProt P30556)
T2 sequence (P30556 whole entry): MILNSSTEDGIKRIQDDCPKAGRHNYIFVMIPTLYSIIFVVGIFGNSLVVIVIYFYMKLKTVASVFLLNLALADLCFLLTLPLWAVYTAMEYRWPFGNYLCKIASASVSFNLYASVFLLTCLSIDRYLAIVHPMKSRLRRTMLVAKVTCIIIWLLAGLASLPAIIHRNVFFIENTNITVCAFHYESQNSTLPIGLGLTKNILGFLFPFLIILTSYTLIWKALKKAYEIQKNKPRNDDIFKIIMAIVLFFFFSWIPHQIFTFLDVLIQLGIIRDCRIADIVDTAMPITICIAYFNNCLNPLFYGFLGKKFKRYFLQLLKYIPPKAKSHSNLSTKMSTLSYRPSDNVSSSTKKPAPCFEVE
Assay: […] inhibitory concentration against Angiotensin II receptor, type 1 of human adrenal membrane

| SMILES | IC50 [nM] |
| --- | --- |
| CCc1ccc(C(=O)NS(=O)(=O)c2ccccc2-c2ccc(Cn3c(CC)nc4ccc(NC(=O)NC(C)C)cc4c3=O)c(F)c2)c(F)c1 | 1.6 |
| CCc1nc2ccc(NC(=O)NC(C)C)cc2c(=O)n1Cc1ccc(-c2ccccc2S(=O)(=O)NC(=O)OCCC2CC2)cc1F | 7.2 |
| CCCCc1nc2ccc(NC(=O)N(C)C(C)C)cc2c(=O)n1Cc1ccc(-c2ccccc2S(=O)(=O)NC(=O)OCCC2CC2)cc1F | 1.2 |
| CCCCOC(=O)NS(=O)(=O)c1ccccc1-c1ccc(Cn2c(CC)nc3ccc(NC(=O)N4CCOCC4)cc3c2=O)c(F)c1 | 33 |
| CCCCc1nc2ccc(NC(=O)N(C)C(C)C)cc2c(=O)n1Cc1ccc(-c2ccccc2S(=O)(=O)NC(=O)OCCC(C)C)cc1F | 1.9 |

Biological target: Angiotensin II receptor (Rattus norvegicus) (UniProt P29089+P25095+P35351)
Assay: Ratio of inhibitory concentration against AT2 receptor and AT1 receptor of rat adrenal membrane

| SMILES | Ratio |
| --- | --- |
| CCc1ccc(C(=O)NS(=O)(=O)c2ccccc2-c2ccc(Cn3c(CC)nc4ccc(NC(=O)NC(C)C)cc4c3=O)c(F)c2)c(F)c1 | 2.5 |
| CCc1nc2ccc(NC(=O)NC(C)C)cc2c(=O)n1Cc1ccc(-c2ccccc2S(=O)(=O)NC(=O)OCCC2CC2)cc1F | 0.92 |
| CCCCc1nc2ccc(NC(=O)N(C)C(C)C)cc2c(=O)n1Cc1ccc(-c2ccccc2S(=O)(=O)NC(=O)OCCC2CC2)cc1F | 1.5 |
| CCCCOC(=O)NS(=O)(=O)c1ccccc1-c1ccc(Cn2c(CC)nc3ccc(NC(=O)N4CCOCC4)cc3c2=O)c(F)c1 | 2.2 |
| CCCCc1nc2ccc(NC(=O)N(C)C(C)C)cc2c(=O)n1Cc1ccc(-c2ccccc2S(=O)(=O)NC(=O)OCCC(C)C)cc1F | 1.5 |

Biological target: T3, Type-2 angiotensin II receptor (Rattus norvegicus, UniProt P35351)
T3 sequence (P35351 whole entry): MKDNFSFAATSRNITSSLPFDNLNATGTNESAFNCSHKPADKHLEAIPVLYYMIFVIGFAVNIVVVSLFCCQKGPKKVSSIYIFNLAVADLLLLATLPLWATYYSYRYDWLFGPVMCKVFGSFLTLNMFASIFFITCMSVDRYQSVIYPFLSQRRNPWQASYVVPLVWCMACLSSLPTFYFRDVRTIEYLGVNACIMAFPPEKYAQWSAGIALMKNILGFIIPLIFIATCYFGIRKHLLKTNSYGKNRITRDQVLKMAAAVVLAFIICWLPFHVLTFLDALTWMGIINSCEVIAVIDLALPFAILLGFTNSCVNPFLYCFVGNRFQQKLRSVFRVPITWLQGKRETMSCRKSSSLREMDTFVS
Assay: […] inhibitory concentration against Angiotensin II, type 2 of rat midbrain membrane

| SMILES | IC50 [nM] |
| --- | --- |
| CCc1ccc(C(=O)NS(=O)(=O)c2ccccc2-c2ccc(Cn3c(CC)nc4ccc(NC(=O)NC(C)C)cc4c3=O)c(F)c2)c(F)c1 | 0.25 |
| CCc1nc2ccc(NC(=O)NC(C)C)cc2c(=O)n1Cc1ccc(-c2ccccc2S(=O)(=O)NC(=O)OCCC2CC2)cc1F | 0.56 |
| CCCCc1nc2ccc(NC(=O)N(C)C(C)C)cc2c(=O)n1Cc1ccc(-c2ccccc2S(=O)(=O)NC(=O)OCCC2CC2)cc1F | 0.29 |
| CCCCOC(=O)NS(=O)(=O)c1ccccc1-c1ccc(Cn2c(CC)nc3ccc(NC(=O)N4CCOCC4)cc3c2=O)c(F)c1 | 1.3 |
| CCCCc1nc2ccc(NC(=O)N(C)C(C)C)cc2c(=O)n1Cc1ccc(-c2ccccc2S(=O)(=O)NC(=O)OCCC(C)C)cc1F | 0.21 |
| CCCCOC(=O)NS(=O)(=O)c1ccccc1-c1ccc(Cn2c(CCCC)nc3ccc(NC(=O)N(C)C(C)C)cc3c2=O)cc1 | 2.4 |

Biological target: T4, Angiotensin II receptor (AT-1) type-1 (Rattus norvegicus, UniProt P29089+P25095)
T4 sequence (P29089 whole entry): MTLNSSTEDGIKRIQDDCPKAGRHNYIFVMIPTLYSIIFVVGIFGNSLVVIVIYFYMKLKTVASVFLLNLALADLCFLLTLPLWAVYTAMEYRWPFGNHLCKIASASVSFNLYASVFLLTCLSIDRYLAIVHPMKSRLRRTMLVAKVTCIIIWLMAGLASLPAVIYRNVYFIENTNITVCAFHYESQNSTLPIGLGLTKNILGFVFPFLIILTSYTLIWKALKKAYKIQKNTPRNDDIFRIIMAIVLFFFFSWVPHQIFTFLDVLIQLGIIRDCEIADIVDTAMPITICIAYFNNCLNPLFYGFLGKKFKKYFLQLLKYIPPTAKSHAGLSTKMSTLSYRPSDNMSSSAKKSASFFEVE
T4 sequence (P25095 whole entry): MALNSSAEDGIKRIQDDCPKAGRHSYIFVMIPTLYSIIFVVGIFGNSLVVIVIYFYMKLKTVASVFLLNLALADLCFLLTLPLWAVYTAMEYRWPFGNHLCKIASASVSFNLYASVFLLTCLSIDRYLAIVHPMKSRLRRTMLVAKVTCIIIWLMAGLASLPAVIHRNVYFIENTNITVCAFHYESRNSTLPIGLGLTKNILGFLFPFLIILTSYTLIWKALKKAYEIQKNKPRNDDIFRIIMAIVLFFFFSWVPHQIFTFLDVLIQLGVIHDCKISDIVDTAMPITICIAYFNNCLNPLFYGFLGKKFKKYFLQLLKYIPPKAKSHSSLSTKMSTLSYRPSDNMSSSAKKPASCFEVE
Assay: […] inhibitory concentration against Angiotensin II receptor, type 1 of rat adrenal membrane

| SMILES | IC50 [nM] |
| --- | --- |
| CCc1ccc(C(=O)NS(=O)(=O)c2ccccc2-c2ccc(Cn3c(CC)nc4ccc(NC(=O)NC(C)C)cc4c3=O)c(F)c2)c(F)c1 | 0.14 |
| CCc1nc2ccc(NC(=O)NC(C)C)cc2c(=O)n1Cc1ccc(-c2ccccc2S(=O)(=O)NC(=O)OCCC2CC2)cc1F | 0.64 |
| CCCCc1nc2ccc(NC(=O)N(C)C(C)C)cc2c(=O)n1Cc1ccc(-c2ccccc2S(=O)(=O)NC(=O)OCCC2CC2)cc1F | 0.23 |
| CCCCOC(=O)NS(=O)(=O)c1ccccc1-c1ccc(Cn2c(CC)nc3ccc(NC(=O)N4CCOCC4)cc3c2=O)c(F)c1 | 1.3 |
| CCCCc1nc2ccc(NC(=O)N(C)C(C)C)cc2c(=O)n1Cc1ccc(-c2ccccc2S(=O)(=O)NC(=O)OCCC(C)C)cc1F | 0.14 |

Biological target: T3, Type-2 angiotensin II receptor
Assay: […] inhibitory concentration against AT2 receptor of rat adrenal membrane

| SMILES | IC50 [nM] |
| --- | --- |
| CCc1ccc(C(=O)NS(=O)(=O)c2ccccc2-c2ccc(Cn3c(CC)nc4ccc(NC(=O)NC(C)C)cc4c3=O)c(F)c2)c(F)c1 | 0.34 |
| CCc1nc2ccc(NC(=O)NC(C)C)cc2c(=O)n1Cc1ccc(-c2ccccc2S(=O)(=O)NC(=O)OCCC2CC2)cc1F | 0.8 |
| CCCCc1nc2ccc(NC(=O)N(C)C(C)C)cc2c(=O)n1Cc1ccc(-c2ccccc2S(=O)(=O)NC(=O)OCCC2CC2)cc1F | 0.36 |
| CCCCOC(=O)NS(=O)(=O)c1ccccc1-c1ccc(Cn2c(CC)nc3ccc(NC(=O)N4CCOCC4)cc3c2=O)c(F)c1 | 2.5 |
| CCCCc1nc2ccc(NC(=O)N(C)C(C)C)cc2c(=O)n1Cc1ccc(-c2ccccc2S(=O)(=O)NC(=O)OCCC(C)C)cc1F | 0.22 |

Species on record: Oryctolagus cuniculus
Assay: Ratio of inhibitory concentration against AT2 receptor of rat midbrain to AT1 receptor of rabbit aorta

| SMILES | Ratio |
| --- | --- |
| CCc1ccc(C(=O)NS(=O)(=O)c2ccccc2-c2ccc(Cn3c(CC)nc4ccc(NC(=O)NC(C)C)cc4c3=O)c(F)c2)c(F)c1 | 1.3 |
| CCc1nc2ccc(NC(=O)NC(C)C)cc2c(=O)n1Cc1ccc(-c2ccccc2S(=O)(=O)NC(=O)OCCC2CC2)cc1F | 0.61 |
| CCCCc1nc2ccc(NC(=O)N(C)C(C)C)cc2c(=O)n1Cc1ccc(-c2ccccc2S(=O)(=O)NC(=O)OCCC2CC2)cc1F | 2.5 |
| CCCCOC(=O)NS(=O)(=O)c1ccccc1-c1ccc(Cn2c(CC)nc3ccc(NC(=O)N4CCOCC4)cc3c2=O)c(F)c1 | 0.38 |
| CCCCc1nc2ccc(NC(=O)N(C)C(C)C)cc2c(=O)n1Cc1ccc(-c2ccccc2S(=O)(=O)NC(=O)OCCC(C)C)cc1F | 1.3 |

Biological target: Angiotensin II receptor (Homo sapiens) (UniProt P30556+P50052)
Assay: Ratio of inhibitory concentration against AT2 receptor and AT1 receptor of human adrenal membrane

| SMILES | Ratio |
| --- | --- |
| CCc1ccc(C(=O)NS(=O)(=O)c2ccccc2-c2ccc(Cn3c(CC)nc4ccc(NC(=O)NC(C)C)cc4c3=O)c(F)c2)c(F)c1 | 2 |
| CCc1nc2ccc(NC(=O)NC(C)C)cc2c(=O)n1Cc1ccc(-c2ccccc2S(=O)(=O)NC(=O)OCCC2CC2)cc1F | 0.9 |
| CCCCc1nc2ccc(NC(=O)N(C)C(C)C)cc2c(=O)n1Cc1ccc(-c2ccccc2S(=O)(=O)NC(=O)OCCC2CC2)cc1F | 7.6 |
| CCCCOC(=O)NS(=O)(=O)c1ccccc1-c1ccc(Cn2c(CC)nc3ccc(NC(=O)N4CCOCC4)cc3c2=O)c(F)c1 | 1 |
| CCCCc1nc2ccc(NC(=O)N(C)C(C)C)cc2c(=O)n1Cc1ccc(-c2ccccc2S(=O)(=O)NC(=O)OCCC(C)C)cc1F | 4.4 |

Biological target: T5, Type-1 angiotensin II receptor (Oryctolagus cuniculus, UniProt P34976)
T5 sequence (P34976 whole entry): T2 sequence (P30556 whole entry) with I2M, V49A, I254V, I270V, R272H, R311K, T349S, A353V
Assay: […] inhibitory concentration against Angiotensin II receptor, type 1 of rabbit aorta membrane

| SMILES | IC50 [nM] |
| --- | --- |
| CCc1ccc(C(=O)NS(=O)(=O)c2ccccc2-c2ccc(Cn3c(CC)nc4ccc(NC(=O)NC(C)C)cc4c3=O)c(F)c2)c(F)c1 | 0.19 |
| CCc1nc2ccc(NC(=O)NC(C)C)cc2c(=O)n1Cc1ccc(-c2ccccc2S(=O)(=O)NC(=O)OCCC2CC2)cc1F | 0.92 |
| CCCCc1nc2ccc(NC(=O)N(C)C(C)C)cc2c(=O)n1Cc1ccc(-c2ccccc2S(=O)(=O)NC(=O)OCCC2CC2)cc1F | 0.13 |
| CCCCOC(=O)NS(=O)(=O)c1ccccc1-c1ccc(Cn2c(CC)nc3ccc(NC(=O)N4CCOCC4)cc3c2=O)c(F)c1 | 3.8 |
| CCCCc1nc2ccc(NC(=O)N(C)C(C)C)cc2c(=O)n1Cc1ccc(-c2ccccc2S(=O)(=O)NC(=O)OCCC(C)C)cc1F | 0.23 |
| CCCCCN(C(=O)c1ccccc1)c1ccc2nc(CCC)n(Cc3ccc(-c4ccccc4-c4nn[nH]n4)cc3)c(=O)c2c1 | 1.5 |
| CCCCOC(=O)NS(=O)(=O)c1ccccc1-c1ccc(Cn2c(CCCC)nc3ccc(NC(=O)N(C)C(C)C)cc3c2=O)cc1 | 0.24 |
